Measurements as given in PMC3411110, “AdpA, key regulator for morphological differentiation regulates bacterial chromosome replication” (Open Biology, 2012).

Legend:
AdpA (AdpAHis6) [1] = target: T1, AdpA (AdpAHis6) (Streptomyces coelicolor, UniProt Q9L062); experiment: effect on AdpA-oriC complex formation; details: inhibits DNA binding; direct ADP binding not measured
DnaA (DnaAHis6) = DnaA (DnaAHis6) (Streptomyces coelicolor, UniProt P27902); experiment: SPR of DnaA on immobilised oriC DNA with and without ATP; details: 3 mM ATP; HBS200 buffer pH 7.4, 10 mM MgOAc; 283-bp oriC fragment; promotes DNA binding; direct ATP binding not measured
AdpA (AdpAHis6) [2] = target: T1, AdpA (AdpAHis6); experiment: SPR of AdpA on immobilised oriC DNA; glutaraldehyde cross-linking of AdpA-oriC complexes; details: 3 mM ATP in SPR, increasing ATP in cross-linking with 100 nM AdpA; HBS200 buffer pH 7.4, 10 mM MgOAc; 283-bp oriC fragment; inhibits DNA binding; direct ATP binding not measured

T1 sequence (Q9L062 entry or part of it): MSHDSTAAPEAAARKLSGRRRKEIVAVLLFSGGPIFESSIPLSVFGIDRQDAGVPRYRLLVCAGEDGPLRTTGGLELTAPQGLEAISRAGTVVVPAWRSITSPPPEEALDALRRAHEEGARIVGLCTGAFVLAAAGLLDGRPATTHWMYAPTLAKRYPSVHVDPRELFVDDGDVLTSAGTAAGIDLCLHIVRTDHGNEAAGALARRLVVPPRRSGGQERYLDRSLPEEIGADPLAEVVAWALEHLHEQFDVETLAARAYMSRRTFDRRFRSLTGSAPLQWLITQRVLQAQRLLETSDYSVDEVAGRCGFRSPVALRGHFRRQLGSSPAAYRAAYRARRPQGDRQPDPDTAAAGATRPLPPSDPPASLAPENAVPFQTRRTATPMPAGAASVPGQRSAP
Chain of DnaA (DnaAHis6) (P27902 whole entry, the tested form may be a part): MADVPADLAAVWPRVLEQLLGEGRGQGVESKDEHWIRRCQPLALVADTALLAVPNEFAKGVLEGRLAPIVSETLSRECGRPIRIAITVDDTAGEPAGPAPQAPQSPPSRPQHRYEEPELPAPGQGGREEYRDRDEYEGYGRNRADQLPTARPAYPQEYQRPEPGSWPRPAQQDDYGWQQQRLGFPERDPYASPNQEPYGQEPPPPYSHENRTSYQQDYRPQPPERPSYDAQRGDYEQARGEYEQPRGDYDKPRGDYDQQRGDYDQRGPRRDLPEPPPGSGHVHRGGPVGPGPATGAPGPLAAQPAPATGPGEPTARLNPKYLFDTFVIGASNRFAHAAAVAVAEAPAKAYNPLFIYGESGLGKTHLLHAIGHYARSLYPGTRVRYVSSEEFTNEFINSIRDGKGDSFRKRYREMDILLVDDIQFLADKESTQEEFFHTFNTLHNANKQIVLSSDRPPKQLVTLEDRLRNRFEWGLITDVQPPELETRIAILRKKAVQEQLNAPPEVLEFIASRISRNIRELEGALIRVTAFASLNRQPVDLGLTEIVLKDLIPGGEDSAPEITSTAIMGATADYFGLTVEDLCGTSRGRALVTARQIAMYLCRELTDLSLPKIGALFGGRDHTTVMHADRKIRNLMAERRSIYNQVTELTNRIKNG

With `Nc1ncnc2c1ncn2[C@@H]1O[C@H](COP(=O)(O)OP(=O)(O)O)[C@@H](O)[C@H]1O` [ADP] the “effect on AdpA-oriC complex formation” value (AdpA (AdpAHis6) [1]) was “a similar effect was also observed in the presence of ADP”.

`Nc1ncnc2c1ncn2[C@@H]1O[C@H](COP(=O)(O)OP(=O)(O)OP(=O)(O)O)[C@@H](O)[C@H]1O` [ATP] was tested, and the “SPR of DnaA on immobilised oriC DNA with and without ATP” value (DnaA (DnaAHis6)) was “binds DnaA box(es), particularly weak ones, more efficiently in the presence of ATP” and the “SPR of AdpA on immobilised oriC DNA; glutaraldehyde cross-linking of AdpA-oriC c” value (AdpA (AdpAHis6) [2]) was “ATP at the same concentration used for DnaA-binding experiments nearly completely abolished binding of AdpA”.
